The source of these data is ChEMBL document CHEMBL1132350, “Quantitative structure-activity relationship modeling of dopamine D(1) antagonists using comparative molecular field analysis, genetic algorithms-partial least-squares, and K nearest neighbor methods” (J Med Chem, 1999).

The target in the assay is D(1A) dopamine receptor (Rattus norvegicus) (UniProt P18901). The conditions noted are these: Striatum.
D(1A) dopamine receptor (Rattus norvegicus), sequence (P18901 whole entry): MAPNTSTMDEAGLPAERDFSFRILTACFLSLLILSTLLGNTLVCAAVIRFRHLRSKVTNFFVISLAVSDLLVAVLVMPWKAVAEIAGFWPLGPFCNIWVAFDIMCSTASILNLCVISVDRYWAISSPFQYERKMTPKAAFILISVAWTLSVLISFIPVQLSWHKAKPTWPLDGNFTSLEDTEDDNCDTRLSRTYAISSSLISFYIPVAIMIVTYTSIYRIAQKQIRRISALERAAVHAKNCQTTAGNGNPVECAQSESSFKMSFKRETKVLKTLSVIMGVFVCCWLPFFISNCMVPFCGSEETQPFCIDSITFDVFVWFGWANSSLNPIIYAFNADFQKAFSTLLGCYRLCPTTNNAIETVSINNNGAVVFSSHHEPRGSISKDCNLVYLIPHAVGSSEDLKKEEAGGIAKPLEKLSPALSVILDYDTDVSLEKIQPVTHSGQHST

Description: Affinity towards dopamine receptor D1 in rat corpus striatum tissue.

In turn, `CN(C)c1ccccc1CCN1CCc2cc(Cl)c(O)cc2C(c2ccccc2)C1` (stereo not given) gave a -Log K0.5 of 7.43.

For the molecule `CN(C)CCCCCCN1CCc2cc(Cl)c(O)cc2C(c2ccccc2)C1` (stereo not given), the -Log K0.5 came to 6.94.

On to `CN1CCc2cc(Cl)c(O)cc2C1c1ccccc1` (stereo not given), for which the -Log K0.5 amounted to 8.28.

In turn, `CN1CCc2ccccc2C2c3cc(O)c(I)cc3CCC21` (stereo not given) returned a -Log K0.5 of 5.96.

For `CN1CCc2cc(Cl)c(O)cc2C2c3ccccc3CCC21` (stereo not given), the -Log K0.5 came to 8.3.

Regarding `CN1CCc2ccc(O)cc2C1c1ccccc1` (stereo not given), the -Log K0.5 came out at 6.37.

The molecule `CN1CCc2cc(Cl)c(O)cc2[C@@H](c2ccccc2)C1` gave a -Log K0.5 of 9.4.

`CN(C)C1CCc2ccc(O)cc2C1c1ccccc1` (stereo not given) registered a -Log K0.5 of 5.85.

Regarding `CN1CCc2cc(Br)c(O)cc2C1c1ccccc1` (stereo not given), the -Log K0.5 worked out at 7.97.

The molecule `CNCCCCCCN1CCc2cc(Cl)c(O)cc2C(c2ccccc2)C1` (stereo not given) showed a -Log K0.5 of 6.86.

Molecule `CN1CCc2cc(Cl)c(O)cc2C1Cc1ccccc1` (stereo not given) registered a -Log K0.5 of 7.24.

Molecule `CC(C)c1ccccc1C1c2cc(O)c(Cl)cc2CCN1C` (stereo not given) gave a -Log K0.5 of 8.56.

Consider `Cc1cccc(C)c1C1c2cc(O)c(Cl)cc2CCN1C` (stereo not given), for which the -Log K0.5 was 8.43.

As for `NC1CCc2ccc(O)cc2C1c1ccccc1` (stereo not given), the -Log K0.5 turned out to be 5.53.

For `CCCN(C)C1CCc2ccc(O)cc2C1c1ccccc1` (stereo not given), the -Log K0.5 is 5.82.

`CN(C)c1ccccc1/C=C/N1CCc2cc(Cl)c(O)cc2C(c2ccccc2)C1` (stereo not given) gave a -Log K0.5 of 7.54.

`Cc1cccc(C2c3cc(O)c(Cl)cc3CCN2C)c1C` (stereo not given) yielded a -Log K0.5 of 8.

As to `Cc1ccccc1C1c2cc(O)c(Cl)cc2CCN1C` (stereo not given), the -Log K0.5 was 8.43.

`Cc1cccc(C2c3cc(O)c(Cl)cc3CCN2C)c1` (stereo not given): the -Log K0.5 was found to be 8.38.

As for `CNC1CCc2ccc(O)cc2C1c1ccccc1` (stereo not given), the -Log K0.5 is 5.46.

Regarding `CCCNC1CCc2ccc(O)cc2C1c1ccccc1` (stereo not given), the -Log K0.5 turned out to be 6.02.

With `Cc1ccc(C2c3cc(O)c(Cl)cc3CCN2C)cc1` (stereo not given), the -Log K0.5 came to 8.28.

With `Oc1cc2c(cc1Cl)CCN1CCc3ccccc3C21` (stereo not given), the -Log K0.5 is 5.68.

`CCCN1CCc2cc(Cl)c(O)cc2C1c1ccccc1` (stereo not given): the -Log K0.5 stood at 7.05.

Take `CN1CCc2cc(Cl)c(O)cc2C1c1ccccc1Cl` (stereo not given): the -Log K0.5 came to 8.43.
